pIC50: −log10 of the molar value. Values after ≈ are worked out from the molar mass of the structure shown.
How the values were obtained:
Human ACC2 = Human ACC2 (Homo sapiens, UniProt O00763); assay: In vitro ACC2 inhibition assay (ADP-Glo), human ACC2; format: biochemical; details: 5 nM ACC2, 20 μM ATP, 20 μM acetyl-CoA
C. albicans ATCC 90028 = assay: Anti-Fungal Activity Assay (broth microtiter MIC), C. albicans; format: cell-based, Candida albicans; details: 3 replicates, MIC recorded at 48 h; for MIC: Candida albicans, ATCC90028, 48 h, read-out: MIC C. albicans ATCC 90028
Summary of the method: (§1)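 Plate from frozen stock onto Sabouraud dextrose agar, 35° C overnight; swab colonies into RPMI 1640+MOPS; set density via standard curves; run CLSI M27-A3 broth microdilution; score MIC visually versus growth control at 48 h, soraphen additionally at 24 h.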

C. krusei ATCC 6258 = assay: Anti-Fungal Activity Assay (broth microtiter MIC), C. krusei; format: cell-based, Candida krusei; details: 3 replicates, MIC recorded at 48 h; for MIC: Pichia kudriavzevii, ATCC6258, 48 h, read-out: MIC C. krusei ATCC 6258
Summary of the method: as §1

[1] = test system: C. parapsilosis ATCC 22019; assay: Anti-Fungal Activity Assay (broth microtiter MIC), C. parapsilosis; format: cell-based, Candida parapsilosis; details: 3 replicates, MIC recorded at 48 h; for MIC: Lodderomyces parapsilosis, ATCC22019, 48 h, read-out: MIC C. parapsilosis ATCC 22019
Summary of the method: as §1

Fungal ACC2 = Fungal ACC2 (UniProt Q00955); details: read-out: Fungal ACC2 (IC50, in vitro ACC2 inhibition)
Chain of Fungal ACC2 (Q00955 whole entry): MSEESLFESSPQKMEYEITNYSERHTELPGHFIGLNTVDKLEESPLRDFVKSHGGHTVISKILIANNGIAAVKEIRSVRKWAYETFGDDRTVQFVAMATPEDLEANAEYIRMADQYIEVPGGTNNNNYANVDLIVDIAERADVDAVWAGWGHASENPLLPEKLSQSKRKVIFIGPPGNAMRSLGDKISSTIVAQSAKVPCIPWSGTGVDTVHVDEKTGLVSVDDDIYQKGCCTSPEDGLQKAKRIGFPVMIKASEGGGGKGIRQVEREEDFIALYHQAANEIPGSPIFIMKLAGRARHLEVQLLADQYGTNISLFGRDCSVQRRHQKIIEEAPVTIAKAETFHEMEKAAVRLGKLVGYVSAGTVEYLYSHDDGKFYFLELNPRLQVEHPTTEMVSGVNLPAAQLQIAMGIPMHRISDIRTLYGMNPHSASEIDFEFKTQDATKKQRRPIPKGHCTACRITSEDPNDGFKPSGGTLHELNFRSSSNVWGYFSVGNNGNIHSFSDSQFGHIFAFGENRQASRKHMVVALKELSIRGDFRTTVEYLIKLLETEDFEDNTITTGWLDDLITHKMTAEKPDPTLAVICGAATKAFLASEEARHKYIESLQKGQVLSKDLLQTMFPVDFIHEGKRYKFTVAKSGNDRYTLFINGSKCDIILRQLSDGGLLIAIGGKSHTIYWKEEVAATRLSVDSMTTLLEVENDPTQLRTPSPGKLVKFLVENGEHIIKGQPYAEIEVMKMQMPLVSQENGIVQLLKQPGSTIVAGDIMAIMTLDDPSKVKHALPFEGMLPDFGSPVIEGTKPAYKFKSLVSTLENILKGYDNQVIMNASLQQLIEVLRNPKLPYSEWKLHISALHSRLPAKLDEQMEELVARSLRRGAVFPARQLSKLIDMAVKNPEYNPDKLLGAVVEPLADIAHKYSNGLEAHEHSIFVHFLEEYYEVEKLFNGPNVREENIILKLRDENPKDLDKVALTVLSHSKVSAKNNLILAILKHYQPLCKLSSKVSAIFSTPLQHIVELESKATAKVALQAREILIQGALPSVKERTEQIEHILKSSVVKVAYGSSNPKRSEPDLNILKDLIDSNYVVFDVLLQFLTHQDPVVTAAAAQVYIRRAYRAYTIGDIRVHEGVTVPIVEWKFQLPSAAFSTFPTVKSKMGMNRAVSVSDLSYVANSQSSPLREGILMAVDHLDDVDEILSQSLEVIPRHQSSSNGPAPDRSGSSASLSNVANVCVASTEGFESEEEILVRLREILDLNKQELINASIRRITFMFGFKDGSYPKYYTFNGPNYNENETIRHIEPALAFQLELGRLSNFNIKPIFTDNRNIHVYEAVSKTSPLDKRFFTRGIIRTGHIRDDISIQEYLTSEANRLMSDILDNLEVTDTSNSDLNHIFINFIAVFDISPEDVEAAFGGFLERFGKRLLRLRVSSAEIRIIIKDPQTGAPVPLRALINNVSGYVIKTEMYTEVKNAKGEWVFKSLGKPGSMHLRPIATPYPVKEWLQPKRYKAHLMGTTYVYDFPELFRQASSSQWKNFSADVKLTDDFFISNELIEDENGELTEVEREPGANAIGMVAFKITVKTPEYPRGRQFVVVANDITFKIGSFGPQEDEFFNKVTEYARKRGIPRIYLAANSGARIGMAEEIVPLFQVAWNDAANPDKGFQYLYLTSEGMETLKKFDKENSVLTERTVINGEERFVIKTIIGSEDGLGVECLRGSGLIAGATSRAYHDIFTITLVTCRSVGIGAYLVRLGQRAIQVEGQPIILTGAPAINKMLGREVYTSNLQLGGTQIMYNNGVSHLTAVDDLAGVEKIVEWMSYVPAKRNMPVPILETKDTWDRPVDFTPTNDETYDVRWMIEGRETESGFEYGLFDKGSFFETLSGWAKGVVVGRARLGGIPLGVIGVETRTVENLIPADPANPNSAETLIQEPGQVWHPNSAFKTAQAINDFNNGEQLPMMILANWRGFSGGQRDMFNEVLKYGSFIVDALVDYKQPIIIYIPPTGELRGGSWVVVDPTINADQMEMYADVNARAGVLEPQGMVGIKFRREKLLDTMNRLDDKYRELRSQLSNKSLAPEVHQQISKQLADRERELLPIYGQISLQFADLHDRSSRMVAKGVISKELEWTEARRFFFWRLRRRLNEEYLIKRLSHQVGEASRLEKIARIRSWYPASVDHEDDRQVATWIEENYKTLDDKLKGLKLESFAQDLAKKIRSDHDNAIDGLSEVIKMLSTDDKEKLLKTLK

Chain of Human ACC2 (O00763 whole entry): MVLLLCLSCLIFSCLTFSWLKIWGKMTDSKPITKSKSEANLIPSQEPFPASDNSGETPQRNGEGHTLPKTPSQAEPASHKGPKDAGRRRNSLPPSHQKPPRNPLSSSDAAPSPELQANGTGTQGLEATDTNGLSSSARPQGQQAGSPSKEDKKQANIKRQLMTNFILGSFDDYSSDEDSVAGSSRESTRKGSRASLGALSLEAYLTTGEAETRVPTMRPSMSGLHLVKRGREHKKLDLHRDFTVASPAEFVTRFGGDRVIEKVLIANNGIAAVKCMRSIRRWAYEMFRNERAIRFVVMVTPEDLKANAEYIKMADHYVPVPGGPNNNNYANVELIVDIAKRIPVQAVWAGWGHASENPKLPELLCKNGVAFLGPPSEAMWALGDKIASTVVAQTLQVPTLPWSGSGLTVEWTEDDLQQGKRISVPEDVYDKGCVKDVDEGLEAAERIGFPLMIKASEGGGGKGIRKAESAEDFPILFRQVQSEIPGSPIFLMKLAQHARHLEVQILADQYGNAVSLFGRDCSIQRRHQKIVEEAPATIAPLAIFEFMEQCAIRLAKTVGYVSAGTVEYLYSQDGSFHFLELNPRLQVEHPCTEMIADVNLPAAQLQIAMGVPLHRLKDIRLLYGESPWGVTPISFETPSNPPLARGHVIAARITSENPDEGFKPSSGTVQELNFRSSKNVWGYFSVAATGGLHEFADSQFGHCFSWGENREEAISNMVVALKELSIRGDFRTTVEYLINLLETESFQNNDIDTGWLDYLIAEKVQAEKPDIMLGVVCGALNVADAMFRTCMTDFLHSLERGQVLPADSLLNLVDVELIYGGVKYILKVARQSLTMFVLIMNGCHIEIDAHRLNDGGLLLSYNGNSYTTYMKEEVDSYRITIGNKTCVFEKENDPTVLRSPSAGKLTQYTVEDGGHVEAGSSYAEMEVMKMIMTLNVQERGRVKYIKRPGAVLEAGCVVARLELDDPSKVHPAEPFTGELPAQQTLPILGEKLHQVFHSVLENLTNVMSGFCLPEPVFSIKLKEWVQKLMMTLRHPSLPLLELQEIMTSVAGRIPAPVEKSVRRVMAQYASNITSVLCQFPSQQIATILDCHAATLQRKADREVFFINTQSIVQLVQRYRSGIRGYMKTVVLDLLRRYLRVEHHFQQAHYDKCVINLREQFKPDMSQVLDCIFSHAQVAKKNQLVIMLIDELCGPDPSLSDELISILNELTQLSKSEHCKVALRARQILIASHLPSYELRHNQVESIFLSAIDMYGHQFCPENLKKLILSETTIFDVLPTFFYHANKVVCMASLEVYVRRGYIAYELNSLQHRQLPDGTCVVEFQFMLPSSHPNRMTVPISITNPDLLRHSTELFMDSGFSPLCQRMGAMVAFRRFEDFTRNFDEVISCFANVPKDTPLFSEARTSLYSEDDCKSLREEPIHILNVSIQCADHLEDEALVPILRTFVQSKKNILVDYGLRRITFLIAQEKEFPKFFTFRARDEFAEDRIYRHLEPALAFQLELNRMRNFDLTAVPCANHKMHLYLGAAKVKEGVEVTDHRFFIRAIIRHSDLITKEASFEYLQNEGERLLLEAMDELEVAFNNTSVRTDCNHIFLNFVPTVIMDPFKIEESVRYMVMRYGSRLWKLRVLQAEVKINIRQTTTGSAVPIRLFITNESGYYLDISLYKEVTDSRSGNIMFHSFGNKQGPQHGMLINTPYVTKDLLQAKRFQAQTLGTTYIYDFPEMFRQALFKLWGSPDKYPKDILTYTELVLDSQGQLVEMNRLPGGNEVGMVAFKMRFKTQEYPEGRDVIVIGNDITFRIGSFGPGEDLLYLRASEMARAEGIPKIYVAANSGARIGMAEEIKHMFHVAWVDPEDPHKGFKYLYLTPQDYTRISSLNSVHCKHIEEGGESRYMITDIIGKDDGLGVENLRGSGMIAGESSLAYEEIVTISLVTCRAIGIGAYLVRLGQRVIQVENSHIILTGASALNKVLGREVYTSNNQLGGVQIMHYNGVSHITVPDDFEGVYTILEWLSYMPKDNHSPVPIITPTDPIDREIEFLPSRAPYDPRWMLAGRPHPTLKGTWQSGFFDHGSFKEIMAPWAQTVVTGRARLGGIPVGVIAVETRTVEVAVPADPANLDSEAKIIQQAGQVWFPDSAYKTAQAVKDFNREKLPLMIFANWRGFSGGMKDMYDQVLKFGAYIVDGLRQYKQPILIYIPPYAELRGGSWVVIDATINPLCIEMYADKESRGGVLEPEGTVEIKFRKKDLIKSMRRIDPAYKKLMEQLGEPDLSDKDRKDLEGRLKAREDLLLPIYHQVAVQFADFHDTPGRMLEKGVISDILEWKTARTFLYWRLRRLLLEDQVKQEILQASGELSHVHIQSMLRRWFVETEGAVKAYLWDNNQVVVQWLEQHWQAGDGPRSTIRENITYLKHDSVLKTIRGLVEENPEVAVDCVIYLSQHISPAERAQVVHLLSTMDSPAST

Structure (SMILES) | pIC50 (Human ACC2) | MIC C. albicans ATCC 90028 (C. albicans ATCC 90028) | MIC C. krusei ATCC 6258 (C. krusei ATCC 6258) | MIC C. parapsilosis ATCC 22019 [1] | pIC50 (Fungal ACC2) | MIC (C. albicans ATCC 90028) [µg/mL] | MIC (C. krusei ATCC 6258) [µg/mL] | MIC [1] [µg/mL]
COc1ccc(F)cc1[C@H](COc1nc2sc(-n3nccn3)c(C)c2c(=O)n1C1CC(=O)N(C)C1)OCCO (stereo in doubt) [Compound I-113, 2-((R)-2-(5-fluoro-2-methoxyphenyl)-2-(2-hydroxy-ethoxy)ethoxy)-5-methyl-3-((S)-1-methyl-5-oxopyrrolidin-3-yl)-6-(2H-1,2,3-triazol-2-yl)thieno[2,3-d]pyrimidin-4(3H)-one] | < 6.00 | C (provided an MIC of 2.1-4.0 μg/mL) | C (provided an MIC of 2.1-4.0 μg/mL) | C (provided an MIC of 2.1-4.0 μg/mL) | 7.00 to 8.00 | – | – | –
COc1ccc(F)cc1C(=O)Cn1c(=O)n(C2CCN(C)C2=O)c(=O)c2c(C)c(-n3nccn3)sc21 (stereo in doubt) [Compound I-162, (R)-1-(2-(5-fluoro-2-methoxyphenyl)-2-oxoethyl)-5-methyl-3-(1-methyl-2-oxopyrrolidin-3-yl)-6-(2H-1,2,3-triazol-2-yl)thieno[2,3-d]pyrimidine-2,4(1H,3H)-dione] | 6.00 to 7.00 | C (provided an MIC of 2.1-4.0 μg/mL) | C (provided an MIC of 2.1-4.0 μg/mL) | C (provided an MIC of 2.1-4.0 μg/mL) | 7.00 to 8.00 | – | – | –
COCCO[C@@H](Cn1c(=O)n(C2CCNC2=O)c(=O)c2c(C)c(-n3nccn3)sc21)c1cc(F)ccc1OC (stereo partly drawn) [Compound I-1, 1-((R)-2-(5-fluoro-2-methoxyphenyl)-2-(2-methoxyethoxy)ethyl)-5-methyl-3-(2-oxopyrrolidin-3-yl)-6-(2H-1,2,3-triazol-2-yl)thieno[2,3-d]pyrimidine-2,4(1H,3H)-dione] | 8.00 to 8.70 | – | – | – | 8.70 to 9.15 | 2.1 to 4 (≈ 3.76 to 7.16 µM) | 2.1 to 4 (≈ 3.76 to 7.16 µM) | 2.1 to 4 (≈ 3.76 to 7.16 µM)
COCCO[C@@H](Cn1c(=O)n(C2CCN(C)C2=O)c(=O)c2c(C)c(-n3nccn3)sc21)c1cc(F)ccc1OC (stereo partly drawn) [Compound I-2, 1-((R)-2-(5-fluoro-2-methoxyphenyl)-2-(2-methoxy-ethoxy)ethyl)-5-methyl-3-(1-methyl-2-oxopyrrolidin-3-yl)-6-(2H-1,2,3-triazol-2-yl)thieno[2,3-d]pyrimidine-2,4(1H,3H)-dione] | 7.00 to 8.00 | – | – | – | 8.00 to 8.70 | 2.1 to 4 (≈ 3.67 to 6.99 µM) | 2.1 to 4 (≈ 3.67 to 6.99 µM) | 2.1 to 4 (≈ 3.67 to 6.99 µM)
COCCO[C@@H](Cn1c(=O)n(C2CCN(C(C)C)C2=O)c(=O)c2c(C)c(-n3nccn3)sc21)c1cc(F)ccc1OC (stereo partly drawn) [Compound I-4, 1-((R)-2-(5-fluoro-2-methoxyphenyl)-2-(2-methoxy-ethoxy)ethyl)-3-(1-isopropyl-2-oxopyrrolidin-3-yl)-5-methyl-6-(2H-1,2,3-triazol-2-yl)thieno[2,3-d]pyrimidine-2,4(1H,3H)-dione] | 7.00 to 8.00 | – | – | – | 8.00 to 8.70 | 2.1 to 4 (≈ 3.5 to 6.66 µM) | 2.1 to 4 (≈ 3.5 to 6.66 µM) | 2.1 to 4 (≈ 3.5 to 6.66 µM)
COc1ccc(F)cc1[C@H](Cn1c(=O)n(C2CCNC2=O)c(=O)c2c(C)c(-n3nccn3)sc21)OCCO (stereo partly drawn) [Compound I-5, 1-((R)-2-(5-fluoro-2-methoxyphenyl)-2-(2-hydroxyethoxy)ethyl)-5-methyl-3-(2-oxopyrrolidin-3-yl)-6-(2H-1,2,3-triazol-2-yl)thieno[2,3-d]pyrimidine-2,4(1H,3H)-dione] | 8.00 to 8.70 | – | – | – | 8.70 to 9.15 | 2.1 to 4 (≈ 3.86 to 7.35 µM) | 2.1 to 4 (≈ 3.86 to 7.35 µM) | 2.1 to 4 (≈ 3.86 to 7.35 µM)
COc1ccc(F)cc1[C@H](Cn1c(=O)n(C2CCN(C)C2=O)c(=O)c2c(C)c(-n3nccn3)sc21)OC1CCOCC1 (stereo partly drawn) [Compound I-10, 1-((R)-2-(5-fluoro-2-methoxyphenyl)-2-((tetrahydro-2H-pyran-4-yl)oxy)ethyl)-5-methyl-3-(1-methyl-2-oxopyrrolidin-3-yl)-6-(2H-1,2,3-triazol-2-yl)thieno[2,3-d]pyrimidine-2,4(1H,3H)-dione] | 8.00 to 8.70 | – | – | – | 8.70 to 9.15 | – | 0.25 to 1 (≈ 0.418 to 1.67 µM) | 0.25 to 1 (≈ 0.418 to 1.67 µM)
COCCO[C@@H](Cn1c(=O)n(C2CCCNC2=O)c(=O)c2c(C)c(-n3nccn3)sc21)c1cc(F)ccc1OC (stereo partly drawn) [Compound I-13, 1-((R)-2-(5-fluoro-2-methoxyphenyl)-2-(2-methoxy-ethoxy)ethyl)-5-methyl-3-(2-oxopiperidin-3-yl)-6-(2H-1,2,3-triazol-2-yl)thieno[2,3-d]pyrimidine-2,4(1H,3H)-dione] | 7.00 to 8.00 | – | – | – | 8.70 to 9.15 | 2.1 to 4 (≈ 3.67 to 6.99 µM) | 2.1 to 4 (≈ 3.67 to 6.99 µM) | 2.1 to 4 (≈ 3.67 to 6.99 µM)
CCN1CCCC(n2c(=O)c3c(C)c(-n4nccn4)sc3n(C[C@H](OCCOC)c3cc(F)ccc3OC)c2=O)C1=O (stereo partly drawn) [Compound I-15, 3-(1-ethyl-2-oxopiperidin-3-yl)-1-((R)-2-(5-fluoro-2-methoxyphenyl)-2-(2-methoxyethoxy)ethyl)-5-1-methyl-6-(2H-1,2,3-triazol-2-yl)thieno[2,3-d]pyrimidine-2,4(1H,3H)-dione] | 7.00 to 8.00 | – | – | – | 7.00 to 8.00 | 2.1 to 4 (≈ 3.5 to 6.66 µM) | 2.1 to 4 (≈ 3.5 to 6.66 µM) | 2.1 to 4 (≈ 3.5 to 6.66 µM)
COCCO[C@@H](Cn1c(=O)n(C2CCCN(C(C)C)C2=O)c(=O)c2c(C)c(-n3nccn3)sc21)c1cc(F)ccc1OC (stereo partly drawn) [Compound I-16, 1-((R)-2-(5-fluoro-2-methoxyphenyl)-2-(2-methoxy-ethoxy)ethyl)-3-(1-isopropyl-2-oxopiperidin-3-yl)-5-methyl-6-(2H-1,2,3-triazol-2-yl)thieno[2,3-d]pyrimidine-2,4(1H,3H)-dione] | 6.00 to 7.00 | – | – | – | 8.00 to 8.70 | 2.1 to 4 (≈ 3.42 to 6.51 µM) | 2.1 to 4 (≈ 3.42 to 6.51 µM) | 2.1 to 4 (≈ 3.42 to 6.51 µM)
COc1ccc(F)cc1[C@H](Cn1c(=O)n(C2CCCN(C)C2=O)c(=O)c2c(C)c(-n3nccn3)sc21)OCCO (stereo partly drawn) [Compound I-18, 1-((R)-2-(5-fluoro-2-methoxyphenyl)-2-(2-hydroxy-ethoxy)ethyl)-5-methyl-3-(1-methyl-2-oxopiperidin-3-yl)-6-(2H-1,2,3-triazol-2-yl)thieno[2,3-d]pyrimidine-2,4(1H,3H)-dione] | 7.00 to 8.00 | – | – | – | 8.00 to 8.70 | 2.1 to 4 (≈ 3.67 to 6.99 µM) | 2.1 to 4 (≈ 3.67 to 6.99 µM) | 2.1 to 4 (≈ 3.67 to 6.99 µM)
COc1ccc(F)cc1[C@H](Cn1c(=O)n(C2CCCN(C)C2=O)c(=O)c2c(C)c(-n3nccn3)sc21)OC1CCOCC1 (stereo partly drawn) [Compound I-22, 1-((R)-2-(5-fluoro-2-methoxyphenyl)-2-((tetrahydro-2H-pyran-4-yl)oxy)ethyl)-5-methyl-3-(1-methyl-2-oxopiperidin-3-yl)-6-(2H-1,2,3-triazol-2-yl)thieno[2,3-d]pyrimidine-2,4(1H,3H)-dione] | 7.00 to 8.00 | – | – | – | 8.70 to 9.15 | 0.25 to 1 (≈ 0.408 to 1.63 µM) | 0.25 to 1 (≈ 0.408 to 1.63 µM) | 0.25 to 1 (≈ 0.408 to 1.63 µM)
CCN1CCCC(n2c(=O)c3c(C)c(-n4nccn4)sc3n(C[C@H](OC3CCOCC3)c3cc(F)ccc3OC)c2=O)C1=O (stereo partly drawn) [Compound I-23, 3-(1-ethyl-2-oxopiperidin-3-yl)-1-((R)-2-(5-fluoro-2-methoxyphenyl)-2-((tetrahydro-2H-pyran-4-yl)oxy)ethyl)-5-methyl-6-(2H-1,2,3-triazol-2-yl)thieno[2,3-d]pyrimidine-2,4(1H,3H)-dione] | 8.00 to 8.70 | – | – | – | 8.70 to 9.15 | 0.25 to 1 (≈ 0.399 to 1.6 µM) | 0.25 to 1 (≈ 0.399 to 1.6 µM) | 0.25 to 1 (≈ 0.399 to 1.6 µM)
COc1ccc(F)cc1[C@H](Cn1c(=O)n([C@H]2CCN(C)C2=O)c(=O)c2c(C)c(-n3nccn3)sc21)OC1CCOCC1 [Compound I-35, 1-((R)-2-(5-fluoro-2-methoxyphenyl)-2-((tetrahydro-2H-pyran-4-yl)oxy)ethyl)-5-methyl-3-((S)-1-methyl-2-oxopyrrolidin-3-yl)-6-(2H-1,2,3-triazol-2-yl)thieno[2,3-d]pyrimidine-2,4(1H,3H)-dione] | 7.00 to 8.00 | – | – | – | 8.70 to 9.15 | 2.1 to 4 (≈ 3.51 to 6.68 µM) | 2.1 to 4 (≈ 3.51 to 6.68 µM) | 2.1 to 4 (≈ 3.51 to 6.68 µM)
COc1ccc(F)cc1[C@H](Cn1c(=O)n([C@@H]2CCCN(C)C2=O)c(=O)c2c(C)c(-n3nccn3)sc21)OC1CCOCC1 [Compound I-40, 1-((R)-2-(5-fluoro-2-methoxyphenyl)-2-((tetrahydro-2H-pyran-4-yl)oxy)ethyl)-5-methyl-3-((R)-1-methyl-2-oxopiperidin-3-yl)-6-(2H-1,2,3-triazol-2-yl)thieno[2,3-d]pyrimidine-2,4(1H,3H)-dione] | 7.00 to 8.00 | – | – | – | 8.70 to 9.15 | 1.1 to 2 (≈ 1.8 to 3.26 µM) | 1.1 to 2 (≈ 1.8 to 3.26 µM) | 0.25 to 1 (≈ 0.408 to 1.63 µM)
COc1ccccc1[C@H](Cn1c(=O)n(C2CCNC2=O)c(=O)c2c(C)c(-c3ncco3)sc21)OCCO (stereo partly drawn) [Compound I-53, 1-((R)-2-(2-hydroxyethoxy)-2-(2-methoxyphenyl)ethyl)-5-methyl-6-(oxazol-2-yl)-3-(2-oxopyrrolidin-3-yl)thieno[2,3-d]pyrimidine-2,4(1H,3H)-dione] | 7.00 to 8.00 | – | – | – | 7.00 to 8.00 | 2.1 to 4 (≈ 3.99 to 7.6 µM) | 2.1 to 4 (≈ 3.99 to 7.6 µM) | 2.1 to 4 (≈ 3.99 to 7.6 µM)
COc1ccc(F)cc1[C@H](Cn1c(=O)n([C@H]2CCN(C)C2=O)c(=O)c2c(C)c(-c3ncco3)sc21)O[C@H]1CC[C@@H](O)CC1 [Compound I-194, 1-((R)-2-(5-fluoro-2-methoxyphenyl)-2-(((1 s, 4S)-4-hydroxycyclohexyl)oxy)ethyl)-5-methyl-3-((S)-1-methyl-2-oxopyrrolidin-3-yl)-6-(oxazol-2-yl)thieno[2,3-d]pyrimidine-2,4(1H,3H)-dione] | 8.00 to 8.70 | – | – | – | 8.70 to 9.15 | – | – | –

From patent US20190330224A1, “ACC INHIBITORS AND USES THEREOF” (Gilead Apollo, LLC, priority 2015, published 2019)
